Assay results: ChEMBL document CHEMBL1201862, “PubChem BioAssay data set” (2004)
Activity calls are given as the source filed them.

Columns and labels:
H9c2 = test: cells; format: functional, cell-based; settings: Rattus norvegicus, H9c2, Myocardium;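 note: confirmatory concentration-response retest of ultra-high-throughput screening hits for modulation of myocardial damage; cell death induced by hydrogen peroxide oxidative stress; compound pretreatment for 60 min then peroxide exposure for 2 h; potency is for protecting the cells against peroxide damage rather than for killing them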
[1] = target: T1, Sentrin-specific protease 8 (Homo sapiens, UniProt Q96LD8); format: functional;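 note: luminescence read-out of SENP8 inhibition, dose-response confirmation following an ultra-high-throughput screen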
T1 sequence (Q96LD8 whole entry): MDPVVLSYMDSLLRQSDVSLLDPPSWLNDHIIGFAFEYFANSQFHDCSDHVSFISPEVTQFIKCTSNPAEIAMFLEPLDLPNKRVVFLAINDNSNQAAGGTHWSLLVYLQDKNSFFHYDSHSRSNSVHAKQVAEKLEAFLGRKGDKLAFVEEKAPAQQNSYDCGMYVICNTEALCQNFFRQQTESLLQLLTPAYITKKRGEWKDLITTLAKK

[2] = target: Heat shock protein HSP 90-alpha (Homo sapiens, UniProt P07900); format: functional, organism-based
[3] = target: T2, Sentrin-specific protease 6 (Homo sapiens, UniProt Q9GZR1); format: functional;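 note: Luminescence-based dose-response confirmatory assay of SENP6 inhibition, following up an ultra-high-throughput screen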
T2 sequence (Q9GZR1 whole entry): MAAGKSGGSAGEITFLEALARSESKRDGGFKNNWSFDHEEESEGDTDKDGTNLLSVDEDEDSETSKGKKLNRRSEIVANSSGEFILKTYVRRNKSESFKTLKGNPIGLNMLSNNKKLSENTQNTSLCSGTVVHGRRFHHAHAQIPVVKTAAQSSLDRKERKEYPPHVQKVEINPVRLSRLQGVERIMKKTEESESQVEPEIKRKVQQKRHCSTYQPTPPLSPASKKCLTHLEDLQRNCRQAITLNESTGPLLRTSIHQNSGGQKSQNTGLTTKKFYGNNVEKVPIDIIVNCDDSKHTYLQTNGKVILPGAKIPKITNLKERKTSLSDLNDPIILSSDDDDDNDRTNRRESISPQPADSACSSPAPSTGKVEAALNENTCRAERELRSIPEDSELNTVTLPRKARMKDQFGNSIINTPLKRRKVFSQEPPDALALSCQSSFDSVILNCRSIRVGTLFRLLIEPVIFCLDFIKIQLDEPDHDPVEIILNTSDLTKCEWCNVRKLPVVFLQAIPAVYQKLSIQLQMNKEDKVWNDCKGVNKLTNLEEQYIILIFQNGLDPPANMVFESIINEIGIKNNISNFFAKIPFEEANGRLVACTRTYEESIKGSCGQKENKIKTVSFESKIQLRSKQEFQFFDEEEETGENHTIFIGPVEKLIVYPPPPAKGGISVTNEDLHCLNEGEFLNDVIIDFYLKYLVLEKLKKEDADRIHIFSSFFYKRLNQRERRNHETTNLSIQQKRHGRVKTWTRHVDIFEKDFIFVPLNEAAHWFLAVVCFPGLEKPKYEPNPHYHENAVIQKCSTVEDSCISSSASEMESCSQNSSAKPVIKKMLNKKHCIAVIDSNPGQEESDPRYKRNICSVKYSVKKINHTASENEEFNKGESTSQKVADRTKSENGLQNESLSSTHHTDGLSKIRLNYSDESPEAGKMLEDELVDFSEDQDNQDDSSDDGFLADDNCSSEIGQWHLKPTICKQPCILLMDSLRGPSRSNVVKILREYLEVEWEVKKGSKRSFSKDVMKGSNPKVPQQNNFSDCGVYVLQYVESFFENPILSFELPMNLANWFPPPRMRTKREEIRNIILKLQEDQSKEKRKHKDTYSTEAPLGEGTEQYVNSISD

Caspase-3 = target: T3, Caspase-3 (Homo sapiens, UniProt P42574); format: functional;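 note: Dose-response selectivity test against caspase-3 for candidate inhibitors of sentrin-specific proteases (SENPs)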
T3 sequence (P42574 whole entry): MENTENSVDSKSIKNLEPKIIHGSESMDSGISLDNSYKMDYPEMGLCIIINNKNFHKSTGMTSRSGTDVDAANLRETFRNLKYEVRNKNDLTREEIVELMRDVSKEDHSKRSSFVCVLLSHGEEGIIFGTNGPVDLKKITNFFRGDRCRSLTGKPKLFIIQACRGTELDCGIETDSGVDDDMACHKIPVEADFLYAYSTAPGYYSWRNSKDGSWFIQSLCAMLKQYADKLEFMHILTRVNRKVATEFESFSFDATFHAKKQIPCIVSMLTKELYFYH

[4] = target: T4, Sentrin-specific protease 7 (Homo sapiens, UniProt Q9BQF6); format: functional;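 note: Luminescence-based dose-response confirmation of ultra-high-throughput screening hits, measuring inhibition of SENP7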
T4 sequence (Q9BQF6 whole entry): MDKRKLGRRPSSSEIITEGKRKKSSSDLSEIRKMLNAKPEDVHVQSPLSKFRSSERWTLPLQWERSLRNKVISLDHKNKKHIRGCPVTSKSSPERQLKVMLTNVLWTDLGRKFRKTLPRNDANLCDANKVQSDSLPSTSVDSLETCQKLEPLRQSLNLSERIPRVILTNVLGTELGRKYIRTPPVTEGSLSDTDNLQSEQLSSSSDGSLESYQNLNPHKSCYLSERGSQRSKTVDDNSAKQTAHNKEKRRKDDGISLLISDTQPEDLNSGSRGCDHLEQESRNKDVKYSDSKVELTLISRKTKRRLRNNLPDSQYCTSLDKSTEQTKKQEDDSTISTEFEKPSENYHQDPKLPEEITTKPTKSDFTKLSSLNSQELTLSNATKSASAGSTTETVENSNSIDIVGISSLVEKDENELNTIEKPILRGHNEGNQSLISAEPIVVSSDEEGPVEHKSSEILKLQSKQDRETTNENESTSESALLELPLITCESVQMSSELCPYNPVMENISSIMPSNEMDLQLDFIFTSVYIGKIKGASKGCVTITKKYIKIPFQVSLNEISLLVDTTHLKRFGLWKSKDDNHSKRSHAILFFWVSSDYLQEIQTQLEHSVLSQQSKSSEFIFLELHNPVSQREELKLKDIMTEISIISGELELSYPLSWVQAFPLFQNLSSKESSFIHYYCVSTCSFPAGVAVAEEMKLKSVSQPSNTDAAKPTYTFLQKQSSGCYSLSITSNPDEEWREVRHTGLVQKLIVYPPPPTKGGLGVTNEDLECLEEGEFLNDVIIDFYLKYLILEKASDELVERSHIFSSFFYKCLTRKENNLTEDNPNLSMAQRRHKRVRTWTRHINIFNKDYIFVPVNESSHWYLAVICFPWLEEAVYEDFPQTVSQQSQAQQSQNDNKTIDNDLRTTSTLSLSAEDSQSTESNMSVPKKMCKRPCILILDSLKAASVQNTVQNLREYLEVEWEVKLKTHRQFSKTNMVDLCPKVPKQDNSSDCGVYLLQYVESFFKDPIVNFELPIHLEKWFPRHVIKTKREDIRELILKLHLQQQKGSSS

Protein skinhead-1 = target: T5, Protein skinhead-1 (Caenorhabditis elegans, UniProt P34707); format: functional
T5 sequence (P34707 whole entry): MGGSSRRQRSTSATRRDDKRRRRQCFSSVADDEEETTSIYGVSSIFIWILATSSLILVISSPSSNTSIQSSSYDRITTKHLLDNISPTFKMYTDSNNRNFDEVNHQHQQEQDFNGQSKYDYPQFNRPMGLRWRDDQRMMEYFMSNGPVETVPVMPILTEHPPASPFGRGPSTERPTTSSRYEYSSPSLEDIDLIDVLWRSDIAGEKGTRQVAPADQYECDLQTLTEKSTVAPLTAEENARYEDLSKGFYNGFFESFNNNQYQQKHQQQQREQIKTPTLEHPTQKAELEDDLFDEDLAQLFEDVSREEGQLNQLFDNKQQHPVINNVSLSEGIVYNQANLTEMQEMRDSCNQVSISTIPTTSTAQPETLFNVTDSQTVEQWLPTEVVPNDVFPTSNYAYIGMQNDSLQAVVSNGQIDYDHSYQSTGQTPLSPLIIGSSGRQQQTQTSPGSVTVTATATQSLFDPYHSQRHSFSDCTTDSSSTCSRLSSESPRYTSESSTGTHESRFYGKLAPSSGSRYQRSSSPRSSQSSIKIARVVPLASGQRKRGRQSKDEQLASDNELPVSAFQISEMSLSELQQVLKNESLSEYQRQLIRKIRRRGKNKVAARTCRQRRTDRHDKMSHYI

[5] = target: T6, Apoptotic protease-activating factor 1 (Homo sapiens, UniProt O14727); format: functional
T6 sequence (O14727 whole entry): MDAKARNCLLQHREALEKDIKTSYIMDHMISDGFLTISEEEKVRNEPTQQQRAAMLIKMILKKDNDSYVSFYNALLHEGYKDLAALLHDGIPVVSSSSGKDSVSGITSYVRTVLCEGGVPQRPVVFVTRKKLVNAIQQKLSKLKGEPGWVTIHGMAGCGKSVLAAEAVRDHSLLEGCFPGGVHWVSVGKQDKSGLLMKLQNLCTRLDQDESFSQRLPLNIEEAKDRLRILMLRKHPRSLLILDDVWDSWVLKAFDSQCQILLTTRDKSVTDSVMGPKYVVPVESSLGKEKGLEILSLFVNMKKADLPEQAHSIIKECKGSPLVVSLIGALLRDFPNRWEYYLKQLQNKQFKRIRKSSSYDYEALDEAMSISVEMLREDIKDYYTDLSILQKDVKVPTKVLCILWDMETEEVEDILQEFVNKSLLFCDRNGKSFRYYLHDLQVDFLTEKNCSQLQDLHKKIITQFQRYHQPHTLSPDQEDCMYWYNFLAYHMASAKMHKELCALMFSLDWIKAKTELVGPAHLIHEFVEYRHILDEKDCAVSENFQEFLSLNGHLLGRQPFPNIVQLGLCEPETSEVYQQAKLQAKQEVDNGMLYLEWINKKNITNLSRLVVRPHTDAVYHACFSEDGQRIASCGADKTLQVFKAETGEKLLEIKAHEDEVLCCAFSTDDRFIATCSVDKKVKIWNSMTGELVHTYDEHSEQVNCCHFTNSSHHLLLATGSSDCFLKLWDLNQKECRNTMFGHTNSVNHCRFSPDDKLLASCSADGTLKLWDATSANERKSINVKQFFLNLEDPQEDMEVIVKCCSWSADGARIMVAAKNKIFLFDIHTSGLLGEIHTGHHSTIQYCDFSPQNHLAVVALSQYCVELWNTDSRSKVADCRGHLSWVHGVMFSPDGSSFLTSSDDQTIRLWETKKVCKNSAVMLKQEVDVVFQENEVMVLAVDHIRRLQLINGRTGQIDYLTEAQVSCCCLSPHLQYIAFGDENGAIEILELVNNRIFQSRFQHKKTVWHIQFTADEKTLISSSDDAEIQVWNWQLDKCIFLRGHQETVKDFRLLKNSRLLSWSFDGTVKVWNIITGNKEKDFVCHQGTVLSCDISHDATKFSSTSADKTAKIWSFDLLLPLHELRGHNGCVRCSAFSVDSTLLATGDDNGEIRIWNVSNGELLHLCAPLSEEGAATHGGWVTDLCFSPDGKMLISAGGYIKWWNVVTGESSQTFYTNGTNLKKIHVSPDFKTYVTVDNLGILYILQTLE

cells [6] = format: functional, cell-based
Vero = test: cells; format: functional; settings: Chlorocebus sabaeus
[7] = microbe, parasite or virus in culture; format: functional; settings: Mycobacterium tuberculosis
[8] = luciferase reporter signal suppression in cells – H4 neuroglioma cells, luminescence, dose response (AID 1990); format: functional, cell-based
[9] = Luminescence Cell-Based Dose Response HTS to Identify Inhibitors of 5'UTR Stem-Loop Driven Prion Protein mRNA Translation in H4 Neuroglioblastoma Cells. [Related pubchem assays: 1827 (Project Summary), 1813 (Primary HTS)]; format: functional
cells [10] = format: functional, cell-based; remark: listed apart in the source
[11] = Trypanosoma cruzi growth suppression in host cells – NIH3T3 host cells, beta-gal luminescence, confirmation (AID 2044); format: functional, cell-based;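 note: intracellular parasites grown in NIH/3T3 mouse fibroblasts as host cells; luminescent beta-galactosidase reporter signal from transgenic T. cruzi replicating inside host cells; inhibitors lower the luminescence signal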
INS1 = test: INS-1E survival protection against cytokine death – cell-based, luminescence, retest, dose response (AID 449756); format: functional; settings: Rattus norvegicus;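 note: cell death triggered by IL-1 beta plus TNF-alpha plus IFN-gamma mixture; protective hits raise ATP signal compared with cytokine alone wells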
[12] = NIH3T3 cell viability loss – ATP luminescence, mouse fibroblasts, counter-screen, dose response (AID 2010); format: functional, cell-based;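 note: cells exposed to compound for about 90 hours before reading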
[13] = alpha-synuclein stem-loop luciferase translation blockers – H4 neuroglioma cells, luminescence, confirmation (AID 1988); format: functional, cell-based

NC(=O)COc1ccc2oc(=O)cc(-c3cc4ccccc4o3)c2c1
IC50 (H9c2): > 79 µM (inactive)

O=C(c1cc(O)nc2ccccc12)N1CCN(S(=O)(=O)c2ccc3ccccc3c2)CC1
IC50 (H9c2): > 79 µM (inactive)

O=C(NCCN1CCN(c2ccccc2F)CC1)c1cccn2c(=O)c3ccccc3nc12
IC50 (H9c2): > 79 µM (inactive)

O=C1/C(=C\c2ccc(O)c(O)c2)SC(=S)N1Cc1ccccc1
IC50 [1]: 10.7 µM (active)
AC50 [2]: 3.11 µM (active)
IC50 [3]: 11.5 µM (active)
IC50 (Caspase-3): 67.5 µM (active)
IC50 [4]: 13 µM (active)

CCCOc1ccc(C(=O)Nc2ccc(Cl)cn2)cc1
IC50 (Protein skinhead-1): 100 µM (inactive)
IC50 [1]: 9.81 µM (active)
IC50 [3]: 16.1 µM (active)
IC50 (Caspase-3): 7.83 µM (active)
IC50 [4]: 3.22 µM (active)

CN(Cc1ccc(F)cc1)C(=O)CNC(=O)c1cccs1
IC50 [5]: > 100 µM (inactive)

COc1ccc(-c2cc3ccc(OC)cc3cn2)cc1
IC50 [1]: > 100 µM (inactive)
IC50 [3]: > 100 µM (inactive)
IC50 (Caspase-3): 15.8 µM (active)
IC50 [4]: 1.69 µM (active)

O=C(N/N=C(\c1ccccc1)c1ccccn1)c1ccccc1Cl
EC50 (cells [6]): 12.1 µM (active)
CC50 (Vero): 6.17 µM (active)
CC50 [7]: 5.75 µM (active)
EC50 [8]: 2.03 µM (active)
EC50 [9]: 4.49 µM (active)
EC50 (cells [10]): > 350 µM (not active)
EC50 [11]: 0.852 µM (active)
AC50 (INS1): 1.27 µM (active)
EC50 [12]: 5.45 µM (active)
EC50 [13]: 0.472 µM (active)
